From US20230159538A1, “PYRROLIDINE-PYRAZOLES AS PYRUVATE KINASE ACTIVATORS” (Global Blood Therapeutics, Inc., priority 2020, published 2023)

biological target: T1, Human pyruvate kinase R (PKR) (Homo sapiens, UniProt P30613); assay: Biochemical assay for activation of pyruvate kinase R (Kinase-Glo luminescence, ATP generation); settings: 0.1 nM PKR, 2 mM FBP, 0.3 mM ADP, 0.1 mM PEP
T1 construct: Human pyruvate kinase R (PKR), residues 14-574; 6x-His (N, cleaved yes); 8x-Arg (N, cleaved yes); SUMO (N, cleaved yes); host or cells: E. coli
T1 sequence (P30613 14-574): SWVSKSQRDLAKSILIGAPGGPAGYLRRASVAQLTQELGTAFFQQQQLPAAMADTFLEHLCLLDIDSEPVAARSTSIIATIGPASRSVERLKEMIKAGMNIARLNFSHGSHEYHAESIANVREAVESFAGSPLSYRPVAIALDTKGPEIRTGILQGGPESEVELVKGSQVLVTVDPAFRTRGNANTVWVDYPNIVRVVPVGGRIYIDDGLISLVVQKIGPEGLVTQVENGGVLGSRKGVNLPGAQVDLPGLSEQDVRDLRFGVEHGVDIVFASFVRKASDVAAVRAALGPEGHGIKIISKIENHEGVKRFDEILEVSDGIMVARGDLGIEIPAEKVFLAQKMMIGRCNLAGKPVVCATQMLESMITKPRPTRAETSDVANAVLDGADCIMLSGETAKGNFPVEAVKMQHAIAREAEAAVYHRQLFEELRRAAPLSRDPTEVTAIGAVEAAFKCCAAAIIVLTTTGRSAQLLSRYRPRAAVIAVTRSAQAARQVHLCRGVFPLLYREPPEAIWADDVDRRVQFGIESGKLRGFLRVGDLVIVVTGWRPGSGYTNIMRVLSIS
In short: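 E. coli-expressed human PKR, freed of its His-Arg-SUMO tag and purified by anion exchange and size exclusion, was tested for activation. Read-out was luminescent measurement of ATP generation with Kinase-Glo reagent.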

AC50 [nM] | SMILES
29 | O=C([C@H](O)c1ccccc1Cl)N1Cc2cn(S(=O)(=O)c3ccc4cn[nH]c4c3)nc2C1 [Compound 67, (2R)-2-(2-chlorophenyl)-2-hydroxy-1-[2-(1H-indazole-6-sulfonyl)-2H,4H,5H,6H-pyrrolo[3,4-c]pyrazol-5-yl]ethan-1-one]
13 | O=CN[C@H](C(=O)N1Cc2cn(S(=O)(=O)c3ccc(OC(F)F)cc3)nc2C1)c1ccccc1 [Compound 73, N-[(1S)-2-{2-[4-(difluoromethoxy)benzenesulfonyl]-2H,4H,5H,6H-pyrrolo[3,4-c]pyrazol-5-yl}-2-oxo-1-phenylethyl]formamide]
6.9 | O=C([C@H](CO)c1ccccc1)N1Cc2cn(S(=O)(=O)c3cnc4c(c3)OCCO4)nc2C1 [Compound 76, (2S)-1-(2-{2H,3H-[1,4]dioxino[2,3-b]pyridine-7-sulfonyl}-2H,4H,5H,6H-pyrrolo[3,4-c]pyrazol-5-yl)-3-hydroxy-2-phenylpropan-1-one]
8.3 | COc1ccc(S(=O)(=O)n2cc3c(n2)CN(C(=O)[C@H](CO)c2ccccc2)C3)cn1 [Compound 77, (2S)-3-hydroxy-1-{2-[(6-methoxypyridin-3-yl)sulfonyl]-2H,4H,5H,6H-pyrrolo[3,4-c]pyrazol-5-yl}-2-phenylpropan-1-one]
2.1 | O=C([C@H](CO)c1ccccc1F)N1Cc2cn(S(=O)(=O)c3cnc4c(c3)OCCO4)nc2C1 [Compound 80, (2S)-1-(2-{2H,3H-[1,4]dioxino[2,3-b]pyridine-7-sulfonyl}-2H,4H,5H,6H pyrrolo[3,4-c]pyrazol-5-yl)-2-(2-fluorophenyl)-3-hydroxypropan-1-one]
3.8 | O=CN[C@@H](C(=O)N1Cc2cn(S(=O)(=O)c3ccc4ncsc4c3)nc2C1)c1ccccc1Cl [Compound 81, N-[(1R)-2-[2-(1,3-benzothiazole-6-sulfonyl)-2H,4H,5H,6H-pyrrolo[3,4-c]pyrazol-5-yl]-1-(2-chlorophenyl)-2-oxoethyl]formamide]
5 | O=C([C@H](CO)c1ccccc1)N1Cc2cn(S(=O)(=O)c3ccc4ncccc4c3)nc2C1 [Compound 82, (2S)-3-hydroxy-2-phenyl-1-[2-(quinoline-6-sulfonyl)-2H,4H,5H,6H-pyrrolo[3,4-c]pyrazol-5-yl]propan-1-one]
4.5 | O=C([C@H](CO)c1ccccc1F)N1Cc2cn(S(=O)(=O)c3ccc4occc4c3)nc2C1 [Compound 84, (2S)-1-[2-(1-benzofuran-5-sulfonyl)-2H,4H,5H,6H-pyrrolo[3,4-c]pyrazol-5-yl]-2-(2-fluorophenyl)-3-hydroxypropan-1-one]
3 | COc1ccc(S(=O)(=O)n2cc3c(n2)CN(C(=O)[C@H](CO)c2ccccc2F)C3)cc1 [Compound 88, (2S)-2-(2-fluorophenyl)-3-hydroxy-1-[2-(4-methoxybenzenesulfonyl)-2H,4H,5H,6H-pyrrolo[3,4-c]pyrazol-5-yl]propan-1-one]
430 | Cn1ncc2ccc(S(=O)(=O)n3cc4c(n3)CN(C(=O)[C@H](CO)c3ccccc3)C4)cc21 [Compound 90, (2S)-3-hydroxy-1-{2-[(1-methyl-1H-indazol-6-yl)sulfonyl]-2H,4H,5H,6H-pyrrolo[3,4-c]pyrazol-5-yl}-2-phenylpropan-1-one]
14 | O=C([C@H](CO)c1ccccc1)N1Cc2cn(S(=O)(=O)c3ccc4c(cnn4C(F)F)c3)nc2C1 [Compound 91, (2S)-1-(2-{[1-(difluoromethyl)-1H-indazol-5-yl]sulfonyl}-2H,4H,5H,6H-pyrrolo[3,4-c]pyrazol-5-yl)-3-hydroxy-2-phenylpropan-1-one]
7080 | O=C([C@H](CO)c1ccccc1)N1Cc2cn(S(=O)(=O)c3ccc(OC4COC4)nc3)nc2C1 [Compound 95, (2S)-3-hydroxy-1-(2-{[6-(oxetan-3-yloxy)pyridin-3-yl]sulfonyl}-2H,4H,5H,6H-pyrrolo[3,4-c]pyrazol-5-yl)-2-phenylpropan-1-one]

Second part, the compound before the results:

SMILES | AC50 [nM]
O=C([C@H](O)c1ccccc1F)N1Cc2cn(S(=O)(=O)c3ccc(OC(F)F)cc3)nc2C1 [Compound 72, (2R)-1-[2-[4-(difluoromethoxy)benzenesulfonyl]-4H,6H-pyrrolo[3,4-c]pyrazol-5-yl]-2-(2-fluorophenyl)-2-hydroxyethanone] | 6
O=C(N1Cc2cn(S(=O)(=O)c3ccc(OC(F)F)cc3)nc2C1)C1(c2ncccc2Cl)COC1 [Compound 75, 3-chloro-2-(3-{2-[4-(difluoromethoxy)benzenesulfonyl]-2H,4H,5H,6H-pyrrolo[3,4-c]pyrazole-5-carbonyl}oxetan-3-yl)pyridine] | 4.4
O=CN[C@@H](C(=O)N1Cc2cn(S(=O)(=O)c3ccc(OC(F)F)cc3)nc2C1)c1ccccc1F [Compound 78, N-[(1R)-2-{2-[4-(difluoromethoxy)benzenesulfonyl]-2H,4H,5H,6H-pyrrolo[3,4-c]pyrazol-5-yl}-1-(2-fluorophenyl)-2-oxoethyl]formamide] | 4.7
O=C([C@H](CO)c1ccccc1F)N1Cc2cn(S(=O)(=O)c3ccc4ncsc4c3)nc2C1 [Compound 79, (2S)-1-[2-(1,3-benzothiazole-6-sulfonyl)-2H,4H,5H,6H-pyrrolo[3,4-c]pyrazol-5-yl]-2-(2-fluorophenyl)-3-hydroxypropan-1-one] | 4.9
O=C([C@H](CO)c1ccccc1)N1Cc2cn(S(=O)(=O)c3cccc(OC(F)F)c3)nc2C1 [Compound 83, (2S)-1-{2-[3-(difluoromethoxy)benzenesulfonyl]-2H,4H,5H,6H-pyrrolo[3,4-c]pyrazol-5-yl}-3-hydroxy-2-phenylpropan-1-one] | 7.9
O=C([C@H](CO)c1ccccc1F)N1Cc2cn(S(=O)(=O)c3ccc(OC(F)F)nc3)nc2C1 [Compound 85, (2S)-1-(2-[6-(difluoromethoxy)pyridin-3-yl]sulfonyl-2H,4H,5H,6H-pyrrolo[3,4-c]pyrazol-5-yl)-2-(2-fluorophenyl)-3-hydroxypropan-1-one] | 6.8
O=C([C@H](CO)c1ccccc1Cl)N1Cc2cn(S(=O)(=O)c3cnc4occc4c3)nc2C1 [Compound 86, (2S)-2-(2-chlorophenyl)-1-(2-{furo[2,3-b]pyridine-5-sulfonyl}-2H,4H,5H,6H-pyrrolo[3,4-c]pyrazol-5-yl)-3-hydroxypropan-1-one] | 1.8
O=C([C@H](CO)c1ccccc1)N1Cc2cn(S(=O)(=O)c3ccc4nccnc4c3)nc2C1 [Compound 94, (2S)-3-hydroxy-2-phenyl-1-[2-(quinoxaline-6-sulfonyl)-2H,4H,5H,6H-pyrrolo[3,4-c]pyrazol-5-yl]propan-1-one] | 17
CN1Cc2cc(S(=O)(=O)n3cc4c(n3)CN(C(=O)[C@H](CO)c3ccccc3)C4)ccc2OC1=O [Compound 96, 6-({5-[(2S)-3-hydroxy-2-phenylpropanoyl]-2H,4H,5H,6H-pyrrolo[3,4-c]pyrazol-2-yl}sulfonyl)-3-methyl-3,4-dihydro-2H-1,3-benzoxazin-2-one] | 53
O=C([C@H](CO)c1ccccc1)N1Cc2cn(S(=O)(=O)c3ccc(OC4CC4)nc3)nc2C1 [Compound 97, (2S)-1-{2-[(6-cyclopropoxypyridin-3-yl)sulfonyl]-2H,4H,5H,6H-pyrrolo[3,4-c]pyrazol-5-yl}-3-hydroxy-2-phenylpropan-1-one] | > 10000
O=C([C@H](CO)c1ccccc1)N1Cc2cn(S(=O)(=O)c3ccc(C4CC4)nc3)nc2C1 [Compound 101, (2S)-1-{2-[(6-cyclopropylpyridin-3-yl)sulfonyl]-2H,4H,5H,6H-pyrrolo[3,4-c]pyrazol-5-yl}-3-hydroxy-2-phenylpropan-1-one] | 41
